Experiments:
Format in all cases: in vivo
[1] = system: ragweed (common ragweed, Ambrosia artemisiifolia); assay: Test A1 preemergence, ragweed
How it was run: (§1)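 Both timings started from seed in a loam-sand blend. Preemergence pots got a directed soil application immediately; postemergence pots were sprayed when seedlings had one or two leaves and stood 2–10 cm. Each compound was prepared in a non-phytotoxic solvent plus surfactant.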

[2] = system: Foxtail, Giant (giant foxtail, Setaria faberi); assay: Test A1 postemergence, Foxtail, Giant; conditions: for Foxtail, Giant plant response rating: postemergence; for Plant response rating, Foxtail, Giant: Postemergence
How it was run: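 Herbicidal response was scored on plants treated either preemergence, by directed spray onto soil of a loam–sand blend after sowing, or postemergence on potted plants at the one- to two-leaf stage, 2–10 cm high. Test chemicals were carried in a non-phytotoxic solvent mix with surfactant.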

[3] = system: Ryegrass, Italian (Italian ryegrass, Lolium multiflorum); assay: Test A1 preemergence, Ryegrass, Italian
How it was run: as §1

soybean (Glycine max) = assay: Test A1 preemergence, soybean
How it was run: as §1

[4] = 125 g ai/ha, 0 to 100 scale (0 no effect, 100 complete control)
[5] = 31 g ai/ha, 0 to 100 scale (0 no effect, 100 complete control)
[6] = 125 g ai/ha, 0 to 100 scale (0 no effect, 100 complete control), 10 days
[7] = 125 g ai/ha, 0 to 100 scale, 0 no effect, 100 complete control

## Cc1cc(C)c(N2Cc3cccc(Br)c3C2=O)cc1NS(=O)(=O)Cl [Compound 415]
[1]; [4]
  Plant response rating, Ragweed: 90
[2]; [5]
  Foxtail, Giant plant response rating: 0
[2]; [6]
  Plant response rating, Foxtail, Giant: 30
[3]; [4]
  Plant response rating, Ryegrass, Italian: 70
Soybean (Glycine max); [4]
  Plant response rating, Soybean: 0

## Cc1c(NS(=O)(=O)C(F)(F)F)cc(C2=NOC3(CCCC3)C2)c(C)c1C [Compound 380]
[1]; [5]
  Plant response rating, Ragweed: 0
[1]; [7]
  Plant response rating, Ragweed: 40
[2]; [5]
  Foxtail, Giant plant response rating: 10
[2]; [6]
  Plant response rating, Foxtail, Giant: 80
[3]; [5]
  Plant response rating, Ryegrass, Italian: 60
[3]; [7]
  Plant response rating, Ryegrass, Italian: 100
Soybean (Glycine max); [5]
  Plant response rating, Soybean: 20
Soybean (Glycine max); [7]
  Plant response rating, Soybean: 50

## Cc1cc(C)c(N(S(=O)(=O)C(F)(F)F)S(=O)(=O)C(F)(F)F)cc1N1CCC2(CCC(C(F)(F)F)CC2)C1=O (centres unmarked) [Compound 399]
[1]; [5]
  Plant response rating, Ragweed: 0
[1]; [7]
  Plant response rating, Ragweed: 60
[2]; [5]
  Foxtail, Giant plant response rating: 10
[2]; [6]
  Plant response rating, Foxtail, Giant: 60
[3]; [5]
  Plant response rating, Ryegrass, Italian: 40
[3]; [7]
  Plant response rating, Ryegrass, Italian: 90
Soybean (Glycine max); [5]
  Plant response rating, Soybean: 30
Soybean (Glycine max); [7]
  Plant response rating, Soybean: 40

## C#CCN(C)C(=O)c1cc(N(COC(=O)C(C)(C)C)S(=O)(=O)C(F)(F)F)c(C)c(C)c1C [Compound 371]
[1]; [5]
  Plant response rating, Ragweed: 40
[1]; [7]
  Plant response rating, Ragweed: 90
[2]; [5]
  Foxtail, Giant plant response rating: 90
[2]; 125 g ai/ha, 0 to 100 scale
  Plant response rating, Foxtail, Giant: 90
[3]; [5]
  Plant response rating, Ryegrass, Italian: 0
[3]; [7]
  Plant response rating, Ryegrass, Italian: 80
Soybean (Glycine max); [5]
  Plant response rating, Soybean: 0
Soybean (Glycine max); [7]
  Plant response rating, Soybean: 60

## CCC1CC(c2cc(N(COC(=O)C(C)(C)C)S(=O)(=O)C(F)(F)F)c(C)cc2C)=NO1 (centres unmarked) [Compound 376]
[1]; [5]
  Plant response rating, Ragweed: 0
[1]; [7]
  Plant response rating, Ragweed: 0
[2]; [5]
  Foxtail, Giant plant response rating: 0
[2]; 125 g ai/ha, 0 to 100 scale
  Plant response rating, Foxtail, Giant: 20
[3]; [5]
  Plant response rating, Ryegrass, Italian: 0
[3]; [7]
  Plant response rating, Ryegrass, Italian: 30
Soybean (Glycine max); [5]
  Plant response rating, Soybean: 0
Soybean (Glycine max); [7]
  Plant response rating, Soybean: 0

## CCOC(=O)N(c1cc(C2=NOC3CCCC23)c(CC)cc1C)S(=O)(=O)C(F)(F)F (centres unmarked) [Compound 379]
[1]; [5]
  Plant response rating, Ragweed: 0
[1]; [7]
  Plant response rating, Ragweed: 0
[2]; [5]
  Foxtail, Giant plant response rating: 0
[2]; 125 g ai/ha, 0 to 100 scale
  Plant response rating, Foxtail, Giant: 10
[3]; [5]
  Plant response rating, Ryegrass, Italian: 0
[3]; [7]
  Plant response rating, Ryegrass, Italian: 40
Soybean (Glycine max); [5]
  Plant response rating, Soybean: 0
Soybean (Glycine max); [7]
  Plant response rating, Soybean: 0

## Cc1c(C(=O)N2C[C@@H](C)O[C@H](C)C2)cc(N(COC(=O)C(C)(C)C)S(=O)(=O)C(F)(F)F)c(C)c1C (relative stereo) [Compound 373]
[1]; [5]
  Plant response rating, Ragweed: 50
[1]; [7]
  Plant response rating, Ragweed: 50
[2]; [5]
  Foxtail, Giant plant response rating: 0
[2]; 125 g ai/ha, 0 to 100 scale
  Plant response rating, Foxtail, Giant: 60
[3]; [5]
  Plant response rating, Ryegrass, Italian: 0
[3]; [7]
  Plant response rating, Ryegrass, Italian: 0
Soybean (Glycine max); [5]
  Plant response rating, Soybean: 0
Soybean (Glycine max); [7]
  Plant response rating, Soybean: 10

## Cc1cc(Cl)c(NS(=O)(=O)C(F)(F)F)cc1N1CCC2(CCCCC2)C1=O [Compound 393]
[1]; [5]
  Plant response rating, Ragweed: 40
[1]; [7]
  Plant response rating, Ragweed: 90
[2]; [5]
  Foxtail, Giant plant response rating: 0
[2]; [6]
  Plant response rating, Foxtail, Giant: 40
[3]; [5]
  Plant response rating, Ryegrass, Italian: 90
[3]; [7]
  Plant response rating, Ryegrass, Italian: 100
Soybean (Glycine max); [5]
  Plant response rating, Soybean: 60
Soybean (Glycine max); [7]
  Plant response rating, Soybean: 80

## COC1CCN(C(=O)c2cc(N(COC(=O)C(C)(C)C)S(=O)(=O)C(F)(F)F)c(C)c(C)c2C)CC1 [Compound 370]
[1]; [5]
  Plant response rating, Ragweed: 0
[1]; [7]
  Plant response rating, Ragweed: 70
[2]; [5]
  Foxtail, Giant plant response rating: 10
[2]; 125 g ai/ha, 0 to 100 scale
  Plant response rating, Foxtail, Giant: 80
[3]; [5]
  Plant response rating, Ryegrass, Italian: 30
[3]; [7]
  Plant response rating, Ryegrass, Italian: 30
Soybean (Glycine max); [5]
  Plant response rating, Soybean: 0
Soybean (Glycine max); [7]
  Plant response rating, Soybean: 0

## Cc1c(C(=O)N2CCSCC2)cc(N(COC(=O)C(C)(C)C)S(=O)(=O)C(F)(F)F)c(C)c1C [Compound 285]
[1]; [5]
  Plant response rating, Ragweed: 0
[1]; [7]
  Plant response rating, Ragweed: 10
[2]; 31 g ai/ha, 0 to 100 scale (0 no effect, 100 complete control), 10 days
  Plant response rating, Foxtail, Giant: 30
[2]; 125 g ai/ha, 0 to 100 scale
  Plant response rating, Foxtail, Giant: 80
[3]; [5]
  Plant response rating, Ryegrass, Italian: 0
[3]; [7]
  Plant response rating, Ryegrass, Italian: 0
Soybean (Glycine max); [5]
  Plant response rating, Soybean: 0
Soybean (Glycine max); [7]
  Plant response rating, Soybean: 0

## Cc1cc(C)c(N(COC(=O)C(C)(C)C)S(=O)(=O)C(F)(F)F)cc1C1=NOC(C(C)C)C1 (centres unmarked) [Compound 383]
[1]; [5]
  Plant response rating, Ragweed: 0
[1]; [7]
  Plant response rating, Ragweed: 0
[2]; [5]
  Foxtail, Giant plant response rating: 0
[2]; [6]
  Plant response rating, Foxtail, Giant: 60
[3]; [5]
  Plant response rating, Ryegrass, Italian: 0
[3]; [7]
  Plant response rating, Ryegrass, Italian: 40
Soybean (Glycine max); [5]
  Plant response rating, Soybean: 0
Soybean (Glycine max); [7]
  Plant response rating, Soybean: 0

## Cc1cc(C)c(C2=NOC3OCCCC23)cc1NS(=O)(=O)C(F)(F)F (centres unmarked) [Compound 372]
[1]; [5]
  Plant response rating, Ragweed: 0
[1]; [7]
  Plant response rating, Ragweed: 70
[2]; [5]
  Foxtail, Giant plant response rating: 0
[2]; 125 g ai/ha, 0 to 100 scale
  Plant response rating, Foxtail, Giant: 40
[3]; [5]
  Plant response rating, Ryegrass, Italian: 40
[3]; [7]
  Plant response rating, Ryegrass, Italian: 90
Soybean (Glycine max); [5]
  Plant response rating, Soybean: 0
Soybean (Glycine max); [7]
  Plant response rating, Soybean: 50

## Cc1cc(C)c(N2Cc3cccc(C)c3C2=O)cc1NS(=O)(=O)Cl [Compound 408]
[1]; [4]
  Plant response rating, Ragweed: 50
[2]; [5]
  Foxtail, Giant plant response rating: 90
[2]; [6]
  Plant response rating, Foxtail, Giant: 90
[3]; [4]
  Plant response rating, Ryegrass, Italian: 100
Soybean (Glycine max); [4]
  Plant response rating, Soybean: 50

Source: patent publication US20230278972A1, “SUBSTITUTED HALOALKYL SULFONANILIDE HERBICIDES” (FMC Corporation, priority 2020, published 2023)
